Here are results for 9 molecules from article PMC10583824, “The rational design of ARUK2007145, a dual inhibitor of the α and γ isoforms of the lipid kinase phosphatidylinositol 5-phosphate 4-kinase (PI5P4K)” (RSC Medicinal Chemistry, 2023).

Usually solubility stands for the concentration that dissolves in the medium under given conditions. What is called pIC50 is the IC50 on a negative log10 scale, so that one unit is a factor of ten. A lower pIC50 goes with a large IC50. In general, efflux ratio refers to the permeability from basolateral to apical divided by that in the opposite direction, in the common usage.

Data set [1] deals with MDCK-MDR1 cells. The experiment in a line: MDR1-MDCK bi-directional permeability and efflux. The settings on record: MDCK-MDR1 cells; A2B; 10 µM.
Method: (§2) MDR1-MDCK Permeability (bi-directional): was performed by Cyprotex Discovery. Briefly, compounds were administered at 10 µM (1% DMSO final) to the apical or basolateral side of a confluent monolayer of MDR1-MDCK cells, then incubated at 37 °C for 60 minutes before appearance on the opposite side of the monolayer was determined LC-MS/MS. The efflux ratio (ER) is calculated from the ratio of B-A to A-B permeabilities.
Data set [2] addresses T1, PI5P4Kα (Homo sapiens, UniProt P48426).
T1 sequence (P48426 1-406): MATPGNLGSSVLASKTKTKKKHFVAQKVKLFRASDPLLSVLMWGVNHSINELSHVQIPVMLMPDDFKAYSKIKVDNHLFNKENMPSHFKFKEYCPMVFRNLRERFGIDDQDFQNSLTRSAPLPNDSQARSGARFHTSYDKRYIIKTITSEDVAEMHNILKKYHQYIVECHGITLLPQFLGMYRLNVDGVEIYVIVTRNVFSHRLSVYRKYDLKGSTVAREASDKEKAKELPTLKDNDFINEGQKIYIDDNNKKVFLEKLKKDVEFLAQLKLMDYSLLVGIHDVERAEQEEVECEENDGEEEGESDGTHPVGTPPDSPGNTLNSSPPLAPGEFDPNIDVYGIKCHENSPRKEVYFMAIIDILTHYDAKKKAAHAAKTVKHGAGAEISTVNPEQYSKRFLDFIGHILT
Conditions: for PI5P4Kα pIC50: ADP-Glo, footnote a: inconsistent replicates, value shown is upper limit. Background: ADP-Glo turns the ADP formed in a reaction into a luminescent signal.

Data set [3] can be described thus: Turbidimetric aqueous solubility. The format is physicochemical. Conditions: pH 7.4, turbidimetric. The method, then: (§1) ADMET experimental methods […]
Turbidimetric aqueous solubility: analysis was performed by Cyprotex Discovery. Compound in DMSO at 10 mM was serially diluted to solutions of 0.1, 0.3, 1 and 3 mM in DMSO, then further diluted 1 in 100 in buffer (0.01 M PBS, pH 7.4, 1% DMSO final). 7 replicate wells of each dilution were equilibrated for 2 hours at 37 °C before absorbance is measured at 620 nm. The solubility is estimated from the concentration of test compound that produces an increase in absorbance above vehicle control (1% DMSO in buffer). […]

Data set [4] concerns the target T2, PI5P4Kγ-WT (Homo sapiens, UniProt Q8TBX8).
T2 sequence (Q8TBX8 1-421): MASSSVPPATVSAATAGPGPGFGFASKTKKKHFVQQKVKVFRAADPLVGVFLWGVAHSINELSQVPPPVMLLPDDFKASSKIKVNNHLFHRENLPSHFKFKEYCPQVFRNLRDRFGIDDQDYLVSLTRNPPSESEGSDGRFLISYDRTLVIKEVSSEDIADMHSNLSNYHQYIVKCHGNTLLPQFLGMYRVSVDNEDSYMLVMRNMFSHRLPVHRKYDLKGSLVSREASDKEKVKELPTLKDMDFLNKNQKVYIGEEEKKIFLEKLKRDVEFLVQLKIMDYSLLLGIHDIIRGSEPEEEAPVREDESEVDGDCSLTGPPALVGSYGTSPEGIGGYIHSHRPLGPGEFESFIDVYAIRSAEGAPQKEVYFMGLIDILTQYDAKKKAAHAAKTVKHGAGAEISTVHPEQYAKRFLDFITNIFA
The experiment in a line: InCELL Pulse cellular target engagement (thermal stabilisation) assay. Conditions: Hek293 cells stably expressing ePL-tagged PI5P4Kγ.

Data set [5] addresses T3, PI5P4Kβ (Homo sapiens, UniProt P78356).
T3 sequence (P78356 1-416): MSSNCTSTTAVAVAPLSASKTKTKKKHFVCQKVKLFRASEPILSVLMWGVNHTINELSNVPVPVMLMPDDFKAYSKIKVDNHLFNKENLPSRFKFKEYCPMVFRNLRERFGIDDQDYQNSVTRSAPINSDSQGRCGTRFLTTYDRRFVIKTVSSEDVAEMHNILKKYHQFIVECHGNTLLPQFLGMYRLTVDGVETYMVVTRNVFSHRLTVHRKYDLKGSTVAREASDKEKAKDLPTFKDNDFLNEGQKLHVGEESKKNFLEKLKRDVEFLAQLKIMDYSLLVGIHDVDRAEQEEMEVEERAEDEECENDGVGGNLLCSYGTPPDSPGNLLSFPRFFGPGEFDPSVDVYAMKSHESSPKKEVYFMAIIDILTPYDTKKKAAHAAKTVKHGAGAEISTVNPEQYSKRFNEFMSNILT
Briefly: PI5P4Kβ ADP-Glo kinase assay.

Data set [6] has as its target T4, PI5P4Kγ+ (Homo sapiens, UniProt Q8TBX8, D138G/D197E/E133P/E135D/E153T/E196G/G139A/N195G/S132L/S134N).
T4 sequence (Q8TBX8 with tags, fused parts or gaps INS131LPN/S132D/E133S/S134Q/E135A/G136R/D138G/G139A/E153T/N195G/E196G/D197E): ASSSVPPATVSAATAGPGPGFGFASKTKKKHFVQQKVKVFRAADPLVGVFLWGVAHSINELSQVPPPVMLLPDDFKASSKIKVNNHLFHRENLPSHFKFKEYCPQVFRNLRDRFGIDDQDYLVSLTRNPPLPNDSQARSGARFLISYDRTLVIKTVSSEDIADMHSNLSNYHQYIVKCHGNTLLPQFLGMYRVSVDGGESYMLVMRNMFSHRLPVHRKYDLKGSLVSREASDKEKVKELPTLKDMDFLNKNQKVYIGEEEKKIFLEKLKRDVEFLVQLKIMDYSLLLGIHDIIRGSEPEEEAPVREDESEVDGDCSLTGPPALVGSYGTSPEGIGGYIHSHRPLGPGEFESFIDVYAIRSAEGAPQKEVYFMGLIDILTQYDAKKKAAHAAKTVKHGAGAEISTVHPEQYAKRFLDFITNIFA
Briefly: biochemical.

A short description of data set [7]: Mouse liver microsome stability. In kind it is in vitro ADME. The settings on record: mouse liver microsomes half-life; read-out: MLM t½. The procedure: as §1
Mouse Microsomal stability: analysis was performed by Cyprotex Discovery. Briefly, test compounds in DMSO
protein/mL) in the presence of NADPH (1 mM) at 37 °C. Aliquots were taken at time intervals (0, 5, 15, 30 and
compound remaining, allowing the determination of the half-life for the compound.
Background: Liver microsomes are vesicles of endoplasmic reticulum, rich in cytochrome P450 enzymes.

The target in data set [8] is T1, PI5P4Kα. The experiment in a line: biochemical. The settings on record: ADP-Glo pIC50 PI5P4Kα, Table S1, two decimals; asterisk not explained.
The subject of data set [9] is MDR1 (P-gp). Briefly: MDR1-MDCK bi-directional permeability and efflux. The settings on record: dog, MDCK-MDR1.
Method: as §2
For data set [10], the system named is PI5P4Kγ+. The settings on record: ratio PI5P4Kα IC50 / PI5P4Kγ+ IC50, ADP-Glo.
Setting [11] is: ADP-Glo pIC50 PI5P4Kγ+, Table S1, two decimals, asterisk not explained.
Setting [12] is: PI5P4Kγ+ pIC50, ADP-Glo, footnote a: inconsistent replicates, value shown is upper limit.

pIC50: −log10 of the molar value. Values after ≈ are worked out from the molar mass of the structure shown. Where only a bound is given, the exact number is not on record here.

As for `Cn1cc(-c2cc3c(Nc4ccc(S(C)(=O)=O)cc4)ncnc3s2)cn1` [Compound 8], the “P app (A2B)” value in data set [1] is recorded as 2.88 10^−6 cm s^−1. For the same molecule, the “PI5P4Kα pIC50” value in data set [2] was found to be 5.2. The molecule further returned a solubility at 2 h in data set [3] of 30 µM (≈ 11.6 µg/mL). For the same molecule, the “InCELL Pulse pIC50 PI5P4Kγ-WT” value in data set [4] is 6.7. In data set [5], the “ADP-Glo pIC50 PI5P4Kβ” value came to 4.9. The values for the pIC50 in data set [6] (setting [11]) and in data set [6] (setting [12]) were 7.44 and 7.40, respectively. Besides, the half-life at 1 µM in [7] stood at 73.3 min.

In the case of `Cc1cnccc1-c1cc2c(Nc3ccc(S(C)(=O)=O)cc3)ncnc2s1` [Compound 10], the “P app (A2B)” value in data set [1] is 3.13 10^−6 cm s^−1. The “PI5P4Kα pIC50” value in [2] came to 6.2. Moreover, the solubility at 2 h in data set [3] was determined as 30 µM (≈ 11.9 µg/mL). Besides, in [4], the “InCELL Pulse pIC50 PI5P4Kγ-WT” value was 7.7. The pIC50 in data set [8] is 6.15; in [6] (setting [11]) it was 7.89; in [6] (setting [12]) it was 7.90. Further, the “ADP-Glo pIC50 PI5P4Kβ” value in data set [5] came to 4.9. Moreover, in data set [7], the half-life at 1 µM was 9.23 min.

For `Cc1ccncc1-c1cc2c(Nc3ccc(S(C)(=O)=O)cc3)ncnc2s1` [Compound 14], the efflux ratio at 60 min, 10 µM in [9] came out at 34.1. Also, in data set [1], the “P app (A2B)” value was 2.45 10^−6 cm s^−1. Also, the “PI5P4Kα pIC50” value in data set [2] turned out to be 6.0. Besides, the solubility at 2 h in data set [3] turned out to be 30 µM (≈ 11.9 µg/mL). Moreover, the pIC50 in data set [6] (setting [11]) was 7.91; in [6] (setting [12]) it was 7.90. Also, the half-life at 1 µM in data set [7] was 8.2 min. Besides, the “Fold-selectivity (α IC50/γ IC50)” value in [10] came out at 79.

As for `CS(=O)(=O)c1ccc(Nc2ncnc3sc(-c4cccnc4Cl)cc23)cc1` [Compound 15], the “P app (A2B)” value in data set [1] was 4.73 10^−6 cm s^−1. Moreover, in data set [2], the “PI5P4Kα pIC50” value worked out at 6.2. Further, the concentration in solution in data set [3] (solubility at 2 h) came to 3 µM (≈ 1.25 µg/mL). Also, the “InCELL Pulse pIC50 PI5P4Kγ-WT” value in data set [4] amounted to 7.1. Further, the values for the pIC50 in data set [8], in data set [6] (setting [11]) and in [6] (setting [12]) were 6.15, 7.89 and 7.90, respectively. The “ADP-Glo pIC50 PI5P4Kβ” value in data set [5] was 4.9. The half-life at 1 µM in data set [7] worked out at 383 min.

As for `Cc1ncccc1-c1cc2c(Nc3ccc(S(C)(=O)=O)cc3)ncnc2s1` [Compound 17], the “P app (A2B)” value in data set [1] was 1.33 10^−6 cm s^−1. For the same molecule, the “PI5P4Kα pIC50” value in [2] stood at 6.0. Besides, the concentration in solution in data set [3] (solubility at 2 h) came to 10 µM (≈ 3.96 µg/mL). Also, the “InCELL Pulse pIC50 PI5P4Kγ-WT” value in [4] was found to be 7.3. The pIC50 in data set [8] was 5.95; in [6] (setting [11]), 7.68; in data set [6] (setting [12]), 7.70. Also, in [5], the “ADP-Glo pIC50 PI5P4Kβ” value was found to be 4.7. The half-life at 1 µM in data set [7] was determined as 35.5 min.

On to `CS(=O)(=O)c1ccc(Nc2ncnc3scc(Cl)c23)cc1` [Compound 32], for which, in [9], the efflux ratio at 60 min, 10 µM is 3.7. In addition, the “P app (A2B)” value in data set [1] is 14.2 10^−6 cm s^−1. The “PI5P4Kα pIC50” value in [2] is on record as under 6.2. Besides, in data set [3], the solubility at 2 h came to 10 µM (≈ 3.4 µg/mL). Moreover, the negative logarithm of the IC50 (pIC50) in data set [6] (setting [12]) is 7.30. For the same molecule, in data set [7], the half-life at 1 µM is 51.4 min.

For the molecule `CS(=O)(=O)c1ccc(Nc2ncnc3cc(-c4cccnc4Cl)sc23)cc1` [Compound 37], the “P app (A2B)” value in data set [1] is 1.33 10^−6 cm s^−1. Besides, in data set [2], the “PI5P4Kα pIC50” value was 6.5. The concentration in solution in data set [3] (solubility at 2 h) was 10 µM (≈ 4.17 µg/mL). In data set [4], the “InCELL Pulse pIC50 PI5P4Kγ-WT” value was found to be 7.4. Also, the pIC50 is 6.45 in data set [8], 7.93 in data set [6] (setting [11]) and 7.90 in [6] (setting [12]). For the same molecule, the half-life at 1 µM in data set [7] was 70.8 min.

Turning to `Cc1ncccc1-c1cc2ncnc(Nc3ccc(C4CC4)cc3)c2s1` [Compound 38], the efflux ratio at 60 min, 10 µM in [9] was determined as 0.91. Also, the “P app (A2B)” value in data set [1] is reported as 9.95 10^−6 cm s^−1. For the same molecule, in [2], the “PI5P4Kα pIC50” value amounted to 7.0. In addition, the “ADP-Glo pIC50 PI5P4Kα” value in data set [2] (Table S1, two decimals, asterisk not explained) is recorded as 7.01. This molecule also returned a solubility at 2 h in [3] of 3 µM (≈ 1.08 µg/mL). The values for the pIC50 in data set [6] (setting [11]) and in data set [6] (setting [12]) were 7.28 and 7.30, respectively. Also, in data set [7], the half-life at 1 µM is 1.94 min. For the same molecule, the “Fold-selectivity (α IC50/γ IC50)” value in data set [10] was found to be 1.9.

In the case of `CSc1ccc(Nc2ncnc3cc(-c4cccnc4Cl)sc23)cc1` [Compound 39], the “P app (A2B)” value in data set [1] is recorded as 12.9 10^−6 cm s^−1. The “PI5P4Kα pIC50” value in [2] is 7.3. The same molecule displayed a solubility at 2 h in [3] of 10 µM (≈ 3.85 µg/mL). The “InCELL Pulse pIC50 PI5P4Kγ-WT” value in data set [4] is 7.3. Besides, the pIC50 in data set [8] was 7.33; in [6] (setting [11]), 8.06; in [6] (setting [12]), 8.10. Further, the half-life at 1 µM in [7] is 0.44 min.
